Measurements as given in the NIST ThermoML archive (doi:10.1021/je100362p).

Tests used:
[1] = refractive index (Na D-line) (dimensionless); xn = mol fraction of the nth substance listed; conditions: 101 kPa, Liquid, Standard Abbe refractometry
[2] = xn = mol fraction of the nth substance listed; conditions: 101 kPa, Liquid; for speed of sound: Sing-around technique in a fixed-path interferometer

Cc1cccc(O)c1 [3-methylphenol] + CCCCCCCCCCO
Conditions	mass density, 298.15 K [kg/m3]	mass density, 303.15 K [kg/m3]	mass density, 308.15 K [kg/m3]	refractive index, 298.15 K	refractive index, 303.15 K	refractive index, 308.15 K	speed of sound, 298.15 K [m/s]	speed of sound, 303.15 K [m/s]	speed of sound, 308.15 K [m/s]
[1], x1 = 0.0818	–	–	–	1.43899	1.43686	1.43464	–	–	–
[1], x1 = 0.1443	–	–	–	1.44269	1.44048	1.43816	–	–	–
[1], x1 = 0.2191	–	–	–	1.44749	1.44514	1.44269	–	–	–
[1], x1 = 0.27	–	–	–	1.45104	1.44858	1.44602	–	–	–
[1], x1 = 0.3513	–	–	–	1.45712	1.45453	1.45183	–	–	–
[1], x1 = 0.4154	–	–	–	1.46234	1.45965	1.45687	–	–	–
[1], x1 = 0.4864	–	–	–	1.46869	1.46584	1.46299	–	–	–
[1], x1 = 0.5447	–	–	–	1.47429	1.47138	1.46848	–	–	–
[1], x1 = 0.6205	–	–	–	1.48226	1.47932	1.47636	–	–	–
[1], x1 = 0.6951	–	–	–	1.49092	1.48799	1.48499	–	–	–
[1], x1 = 0.7472	–	–	–	1.49755	1.49459	1.49161	–	–	–
[1], x1 = 0.8163	–	–	–	1.50709	1.50419	1.50126	–	–	–
[1], x1 = 0.8738	–	–	–	1.51581	1.51296	1.51007	–	–	–
[1], x1 = 0.9325	–	–	–	1.5256	1.52274	1.51982	–	–	–
[1], x1 = 1	–	–	–	1.538	1.535	1.532	–	–	–
[2], x1 = 0.0818	836.406	832.948	829.481	–	–	–	1384.4	1367.3	1350.5
[2], x1 = 0.1443	844.417	840.933	837.44	–	–	–	1388.1	1371	1354.3
[2], x1 = 0.2191	854.601	851.084	847.557	–	–	–	1392.5	1375.5	1358.6
[2], x1 = 0.27	861.935	858.394	854.842	–	–	–	1395.7	1378.5	1361.8
[2], x1 = 0.3513	874.407	870.825	867.235	–	–	–	1400.5	1383.7	1366.8
[2], x1 = 0.4154	884.964	881.35	877.727	–	–	–	1404.8	1388	1371.2
[2], x1 = 0.4864	897.533	893.881	890.219	–	–	–	1410.1	1393.4	1376.6
[2], x1 = 0.5447	908.582	904.899	901.205	–	–	–	1415.1	1398.3	1381.5
[2], x1 = 0.6205	924.111	920.384	916.647	–	–	–	1422.3	1405.6	1388.9
[2], x1 = 0.6951	940.809	937.04	933.259	–	–	–	1430.7	1414	1397.5
[2], x1 = 0.7472	953.452	949.651	945.837	–	–	–	1437.2	1420.7	1404.4
[2], x1 = 0.8163	971.635	967.793	963.936	–	–	–	1447.3	1431.1	1414.8
[2], x1 = 0.8738	988.185	984.309	980.414	–	–	–	1457.3	1441	1424.9
[2], x1 = 0.9325	1006.6	1002.69	998.753	–	–	–	1468.8	1452.8	1436.8
[2], x1 = 1	1030.05	1026.09	1022.12	–	–	–	1480.9	1465.2	1449.6

Cc1ccc(O)cc1 [4-methylphenol] + CCCCCCCCCCO
Conditions	mass density, 298.15 K [kg/m3]	mass density, 303.15 K [kg/m3]	mass density, 308.15 K [kg/m3]	refractive index, 298.15 K	refractive index, 303.15 K	refractive index, 308.15 K	speed of sound, 298.15 K [m/s]	speed of sound, 303.15 K [m/s]	speed of sound, 308.15 K [m/s]
[1], x1 = 0.079	–	–	–	1.43878	1.43659	1.43439	–	–	–
[1], x1 = 0.1424	–	–	–	1.44253	1.44025	1.43792	–	–	–
[1], x1 = 0.2213	–	–	–	1.44759	1.44524	1.44279	–	–	–
[1], x1 = 0.2915	–	–	–	1.45252	1.45006	1.44748	–	–	–
[1], x1 = 0.3611	–	–	–	1.45786	1.45529	1.45263	–	–	–
[1], x1 = 0.418	–	–	–	1.46259	1.45994	1.45719	–	–	–
[1], x1 = 0.4915	–	–	–	1.46921	1.46649	1.46363	–	–	–
[1], x1 = 0.5566	–	–	–	1.47562	1.47279	1.46987	–	–	–
[1], x1 = 0.6321	–	–	–	1.48379	1.48088	1.47785	–	–	–
[1], x1 = 0.7041	–	–	–	1.49234	1.48935	1.48629	–	–	–
[1], x1 = 0.7628	–	–	–	1.49988	1.49689	1.49381	–	–	–
[1], x1 = 0.8229	–	–	–	1.50829	1.50524	1.50212	–	–	–
[1], x1 = 0.8793	–	–	–	1.51677	1.51369	1.51055	–	–	–
[1], x1 = 0.9382	–	–	–	1.52626	1.52321	1.52011	–	–	–
[1], x1 = 1	–	–	–	1.537	1.534	1.531	–	–	–
[2], x1 = 0.079	836.102	832.641	829.175	–	–	–	1384.9	1367.8	1350.9
[2], x1 = 0.1424	844.261	840.772	837.278	–	–	–	1389	1371.9	1355.1
[2], x1 = 0.2213	855.053	851.531	847.999	–	–	–	1394	1376.9	1360
[2], x1 = 0.2915	865.315	861.764	858.196	–	–	–	1398.6	1381.6	1364.7
[2], x1 = 0.3611	876.182	872.603	869.001	–	–	–	1403.5	1386.4	1369.6
[2], x1 = 0.418	885.652	882.051	878.417	–	–	–	1407.7	1390.8	1373.9
[2], x1 = 0.4915	898.718	895.088	891.418	–	–	–	1413.7	1396.8	1379.9
[2], x1 = 0.5566	911.201	907.546	903.844	–	–	–	1419.6	1402.7	1385.9
[2], x1 = 0.6321	926.903	923.218	919.477	–	–	–	1427.5	1410.7	1394
[2], x1 = 0.7041	943.248	939.531	935.758	–	–	–	1436.1	1419.4	1402.8
[2], x1 = 0.7628	957.751	954.009	950.207	–	–	–	1444	1427.3	1411
[2], x1 = 0.8229	973.785	970.012	966.196	–	–	–	1453.2	1436.7	1420.2
[2], x1 = 0.8793	990.126	986.325	982.485	–	–	–	1462.3	1446.2	1429.9
[2], x1 = 0.9382	1008.68	1004.85	1000.99	–	–	–	1474.2	1458	1442.4
[2], x1 = 1	1030.14	1026.28	1022.38	–	–	–	1486.4	1470.7	1455
